Measured values reported in patent publication US10780090B2, “Heteroaryl compounds useful as inhibitors of SUMO activating enzyme” (Millennium Pharmaceuticals, Inc., priority 2014, dated 2020).
pIC50: −log10 of the molar value.

Molecular target: recombinant human SAE enzyme (Homo sapiens (Human), UniProt Q9UBT2)
Experiment: SAE HTRF enzyme assay
Type: biochemical
Conditions: for pIC50: class symbols A/B/C; for inhibition at 0.111 µM: read-out: Percent Inhibition; for IC50: SAE inhibition, class symbols, legend in nM
Method: Example 215: SAE HTRF enzyme assay
The SAE enzymatic reaction totals 50 μl and contains 50 mM HEPES Hemisodium (pH 7.5), 0.05% BSA, 5 mM MgCl2, 0.5 μM ATP, 250 μM GSH, 0.01 μM Ubc9-GST, 0.125 μM Sumo-Flag and 0.11 nM recombinant human SAE enzyme. The enzymatic reaction mixture, with and without inhibitor, Is incubated at 24° C. for 105 min in a 384-well plate before termination with […] of Stop/Detection buffer (0.1M HEPES Hemisodium pH 7.5, 0.05% Tween20, 20 mM EDTA, 410 mM KF, 0.53 nM Europium-Cryptate labeled monoclonal anti-Flag M2 Antibody (CisBio International) and 8.125 μg/ml PHYCOLINK goat anti-GST allophycocyanin (XL-APC) antibody (Prozyme)). After incubation for 2 hours at 24° C., quantification of FRET is performed on the Pherostar™ (BMG Labtech). Percentage inhibition values at a single concentration or enzyme inhibition (IC50) values are determined from those curves. One skilled in the art will appreciate that the values generated either as percentage inhibition at a single concentration or IC50 values are subject to experimental variation.

[1] = SAE inhibition at compound concentration 0.111 μM

Chain of recombinant human SAE enzyme (Q9UBT2 whole entry): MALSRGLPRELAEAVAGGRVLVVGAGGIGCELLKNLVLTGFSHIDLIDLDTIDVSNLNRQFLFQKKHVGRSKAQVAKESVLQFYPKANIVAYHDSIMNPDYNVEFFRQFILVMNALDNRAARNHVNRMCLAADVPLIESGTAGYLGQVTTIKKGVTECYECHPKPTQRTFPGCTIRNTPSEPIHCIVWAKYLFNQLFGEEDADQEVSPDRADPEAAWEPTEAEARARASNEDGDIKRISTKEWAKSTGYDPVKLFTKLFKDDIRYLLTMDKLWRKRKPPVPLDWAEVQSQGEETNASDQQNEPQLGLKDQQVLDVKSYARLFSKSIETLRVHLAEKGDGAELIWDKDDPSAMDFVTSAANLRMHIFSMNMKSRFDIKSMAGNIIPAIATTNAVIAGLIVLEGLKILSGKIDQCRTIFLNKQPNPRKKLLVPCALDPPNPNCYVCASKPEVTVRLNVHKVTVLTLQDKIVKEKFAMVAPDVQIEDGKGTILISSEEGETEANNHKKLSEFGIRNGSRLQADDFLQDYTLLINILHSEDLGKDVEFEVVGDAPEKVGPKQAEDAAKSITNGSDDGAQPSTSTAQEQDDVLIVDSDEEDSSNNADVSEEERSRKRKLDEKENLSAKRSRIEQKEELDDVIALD
Chain of recombinant human SAE enzyme (Q9UBE0 whole entry partner): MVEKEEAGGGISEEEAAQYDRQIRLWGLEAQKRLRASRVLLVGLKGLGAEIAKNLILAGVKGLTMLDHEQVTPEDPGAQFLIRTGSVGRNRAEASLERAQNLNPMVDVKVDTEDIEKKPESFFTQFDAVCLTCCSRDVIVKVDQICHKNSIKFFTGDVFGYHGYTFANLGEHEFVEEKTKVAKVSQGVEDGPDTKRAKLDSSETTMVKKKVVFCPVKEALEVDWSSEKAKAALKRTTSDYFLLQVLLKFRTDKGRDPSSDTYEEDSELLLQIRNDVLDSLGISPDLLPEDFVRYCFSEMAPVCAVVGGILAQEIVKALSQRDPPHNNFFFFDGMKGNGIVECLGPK

SMILES	Percent Inhibition (Concentration 0.111 μM)	pIC50	inhibition at 0.111 µM (Concentration 0.111 μM) [%]	Percent Inhibition [1] [%]	IC50 [nM]
NS(=O)(=O)OCC1CC(Nc2ncncc2C(=O)c2cc(C3OCCc4ccc(Cl)nc43)c(Cl)s2)CC1O (mixture of isomers) [I-276, [(1R,2S,4R)-4-{[5-({5-chloro-4-[(8S)-2-chloro-5,8-dihydro-6H-pyrano[3,4-b]pyridin-8-yl]-2-thienyl}carbonyl)pyrimidin-4-yl]amino}-2-hydroxycyclopentyl]methyl sulfamate and [(1R,2S,4R)-4-{[5-({5-chloro-4-[(8R)-2-chloro-5,8-dihydro-6H-pyrano[3,4-b]pyridin-8-yl]-2-thienyl}carbonyl)pyrimidin-4-yl]amino}-2-hydroxycyclopentyl]methyl sulfamate]	98	> 8.00	–	–	–
C[C@@](O)(c1ccccc1)c1coc(C(=O)c2cncnc2N[C@@H]2C[C@H](COS(N)(=O)=O)[C@@H](O)C2)c1.C[C@](O)(c1ccccc1)c1coc(C(=O)c2cncnc2N[C@@H]2C[C@H](COS(N)(=O)=O)[C@@H](O)C2)c1 (mixture of isomers) [I-58, {(1R,2S,4R)-2-hydroxy-4-[(5-{4-[(1S)-1-hydroxy-1-phenylethyl]-2-furoyl}pyrimidin-4-yl)amino]cyclopentyl}methyl sulfamate and {(1R,2S,4R)-2-hydroxy-4-[(5-{4-[(1R)-1-hydroxy-1-phenylethyl]-2-furoyl}pyrimidin-4-yl)amino]cyclopentyl}methyl sulfamate]	96	> 8.00	–	–	–
NS(=O)(=O)OC[C@H]1C[C@@H](Nc2ncncc2C(=O)c2cc([C@@H]3NCCc4ccc(Br)cc43)c(Cl)s2)C[C@@H]1O (single isomer, unassigned) [I-251a, [(1R,2S,4R)-4-{[5-({4-[(1R)-7-bromo-1,2,3,4-tetrahydroisoquinolin-1-yl]-5-chloro-2-thienyl}carbonyl)pyrimidin-4-yl]amino}-2-hydroxycyclopentyl]methyl sulfamate or [(1R,2S,4R)-4-{([5-({4-[(1S)-7-bromo-1,2,3,4-tetrahydroisoquinolin-1-yl]-5-chloro-2-thienyl}carbonyl)pyrimidin-4-yl]amino}-2-hydroxycyclopentyl]methyl sulfamate]	100	> 8.00	–	–	–
NS(=O)(=O)OC[C@H]1C[C@@H](Nc2ncncc2C(=O)c2cc(C3NCCc4ccc(Cl)cc43)cs2)C[C@@H]1O (single isomer, unassigned) [I-274b, [(1R,2S,4R)-4-{[5-({4-[(1R)-7-chloro-1,2,3,4-tetrahydroisoquinolin-1-yl]-2-thienyl}carbonyl)pyrimidin-4-yl]amino}-2-hydroxycyclopentyl]methyl sulfamate or [(1R,2S,4R)-4-{[5-({4-[(1S)-7-chloro-1,2,3,4-tetrahydroisoquinolin-1-yl]-2-thienyl}carbonyl)pyrimidin-4-yl]amino}-2-hydroxycyclopentyl]methyl sulfamate]	81	7.00 to 8.00	–	–	–
NS(=O)(=O)OC[C@H]1C[C@@H](Nc2ncncc2C(=O)c2cc(Cc3ccccc3)c(Cc3ccccc3)s2)C[C@@H]1O [I-144, [(1R,2S,4R)-4-({5-[(4,5-Dibenzyl-2-thienyl)carbonyl]pyrimidin-4-yl}amino)-2-hydroxycyclopentyl]methyl sulfamate]	–	> 8.00	93	–	–
Cc1sc(C(=O)c2cncnc2N[C@@H]2C[C@H](COS(N)(=O)=O)[C@@H](O)C2)cc1[C@@H]1OCCc2ccc(Cl)nc21 (mixture of isomers) [I-286, [(1R,2S,4R)-4-{[5-({4-[(8S)-2-chloro-5,8-dihydro-6H-pyrano[3,4-b]pyridin-8-yl]-5-methyl-2-thienyl}carbonyl)pyrimidin-4-yl]amino}-2-hydroxycyclopentyl]methyl sulfamate and [(1R,2S,4R)-4-{[5-({4-[(8R)-2-chloro-5,8-dihydro-6H-pyrano[3,4-b]pyridin-8-yl]-5-methyl-2-thienyl}carbonyl)pyrimidin-4-yl]amino}-2-hydroxycyclopentyl]methyl sulfamate]	–	–	–	99	< 10
NC(c1cccc(Cl)n1)c1cc(C(=O)c2cncnc2NC2CC(O)C(COS(N)(=O)=O)C2)sc1Cl (mixture of isomers) [I-25, [(1R,2S,4R)-4-{[5-({4-[(S)-amino(6-chloropyridin-2-yl)methyl]-5-chloro-2-thienyl}carbonyl)pyrimidin-4-yl]amino}-2-hydroxycyclopentyl]methyl sulfamate and [(1R,2S,4R)-4-{[5-({4-[(R)-amino(6-chloropyridin-2-yl)methyl]-5-chloro-2-thienyl}carbonyl)pyrimidin-4-yl]amino}-2-hydroxycyclopentyl]methyl sulfamate]	98	> 8.00	–	–	–
CC[C@H](C)[C@H](N)C(=O)O[C@H]1C[C@H](Nc2ncncc2C(=O)c2cc([C@@H]3OCCc4ccc(Cl)cc43)c(C)s2)C[C@@H]1COS(N)(=O)=O.Cl [I-363, [(1S,2R,4R)-4-[[5-[4-[(1R)-7-chloroisochroman-1-yl]-5-methyl-thiophene-2-carbonyl]pyrimidin-4-yl]amino]-2-(sulfamoyloxymethyl)cyclopentyl (2S,3S)-2-amino-3-methyl-pentanoate hydrochloride]	–	–	–	–	100 to 1000
NS(=O)(=O)OC[C@H]1C[C@@H](Nc2ncncc2C(=O)c2cc(Cn3ccnc3)cs2)C[C@@H]1O [I-231, {(1R,2S,4R)-2-hydroxy-4-[(5-{[4-(1H-imidazol-1-ylmethyl)-2-thienyl]carbonyl}pyrimidin-4-yl)amino]cyclopentyl}methyl sulfamate]	–	6.00 to 7.00	28	–	–
NS(=O)(=O)OC[C@H]1C[C@@H](Nc2ncncc2C(=O)c2cc([C@H]3OCC4(CC4)c4ccccc43)cs2)C[C@@H]1O (mixture of isomers) [I-281, [(1R,2S,4R)-2-hydroxy-4-{[5-({4-[(1′R)-1′H-spiro[cyclopropane-1,4′-isochromen]-1′-yl]-2-thienyl}carbonyl)pyrimidin-4-yl]amino}cyclopentyl]methyl sulfamate and [(1R,2S,4R)-2-hydroxy-4-{[5-({4-[(1′S)-1′H-spiro[cyclopropane-1,4′-isochromen]-1′-yl]-2-thienyl}carbonyl)pyrimidin-4-yl]amino}cyclopentyl]methyl sulfamate]	–	–	–	98	< 10
N[C@@H](c1cccc(Br)n1)c1cc(C(=O)c2cncnc2N[C@@H]2C[C@H](COS(N)(=O)=O)[C@@H](O)C2)sc1Cl (single isomer, unassigned) [I-18a, [(1R,2S,4R)-4-{[5-({4-[(R)-amino(6-bromopyridin-2-yl)methyl]-5-chloro-2-thienyl}carbonyl)pyrimidin-4-yl]amino}-2-hydroxycyclopentyl]methyl sulfamate or [(1R,2S,4R)-4-{[5-({4-[(S)-amino(6-bromopyridin-2-yl)methyl]-5-chloro-2-thienyl}carbonyl)pyrimidin-4-yl]amino}-2-hydroxycyclopentyl]methyl sulfamate]	82	7.00 to 8.00	–	–	–
NS(=O)(=O)OC[C@H]1C[C@@H](Nc2ncncc2C(=O)c2cc(Cc3cccc(Cl)c3F)cs2)C[C@@H]1O [I-84, {(1R,2S,4R)-4-[(5-{[4-(3-chloro-2-fluorobenzyl)-2-thienyl]carbonyl}pyrimidin-4-yl)amino]-2-hydroxycyclopentyl}methyl sulfamate]	–	> 8.00	98	–	–
NS(=O)(=O)OC[C@H]1C[C@@H](Nc2ncncc2C(=O)c2cc([C@@H]3NCCc4ccc(Cl)cc43)c(Cl)s2)[C@H](O)[C@@H]1O (single isomer, unassigned) [I-249a, [(1R,2R,3S,4R)-4-{[5-({5-chloro-4-[(1R)-7-chloro-1,2,3,4-tetrahydroisoquinolin-1-yl]-2-thienyl}carbonyl)pyrimidin-4-yl]amino}-2,3-dihydroxycyclopentyl]methyl sulfamate or [(1R,2R,3S,4R)-4-{[5-({5-chloro-4-[(1S)-7-chloro-1,2,3,4-tetrahydroisoquinolin-1-yl]-2-thienyl}carbonyl)pyrimidin-4-yl]amino}-2,3-dihydroxycyclopentyl]methyl sulfamate]	100	> 8.00	–	–	–
Cc1oc(C(=O)c2cncnc2N[C@@H]2C[C@H](COS(N)(=O)=O)[C@@H](O)[C@@H]2F)cc1Cc1cccc(Cl)c1 [I-75, [(1R,2R,3R,4R)-4-({5-[4-(3-chlorobenzyl)-5-methyl-2-furoyl]pyrimidin-4-yl}amino)-3-fluoro-2-hydroxycyclopentyl]methyl sulfamate]	–	> 8.00	98	–	–
NS(=O)(=O)OC[C@H]1C[C@@H](Nc2ncncc2C(=O)c2cc(Sc3cccc(Cl)c3)c(Cl)s2)C[C@@H]1O [I-175, [(1R,2S,4R)-4-{[5-({5-chloro-4-[(3-chlorophenyl)sulfanyl]-2-thienyl}carbonyl)pyrimidin-4-yl]amino}-2-hydroxycyclopentyl]methyl sulfamate]	–	7.00 to 8.00	90	–	–
NS(=O)(=O)OC[C@H]1C[C@@H](Nc2ncncc2C(=O)c2cc(COc3ccc(Cl)cc3)cs2)C[C@@H]1O [I-163, [(1R,2S,4R)-4-{[5-({4-[(4-chlorophenoxy)methyl]-2-thienyl}carbonyl)pyrimidin-4-yl]amino}-2-hydroxycyclopentyl]methyl sulfamate]	–	7.00 to 8.00	92	–	–
